We go through eight compounds from paper PMC6216040, “Repurposing of an old drug: In vitro and in vivo efficacies of buparvaquone against Echinococcus multilocularis” (International Journal for Parasitology: Drugs and Drug …, 2018).

In brackets after ≈: the same amount, converted by molar mass. Read-outs that look alike come from different tables or passages of the source.

Series [1] concerns E. multilocularis metacestodes. As to the kind of experiment: BPQ treatment of E. multilocularis infected mice. Type of series: in vivo, Balb/c mice. The method, then:
Balb/c mice, 6 weeks old, were purchased from Charles River Laboratories (Sulzheim, Germany) and used for in vivo experiments when they were 8 weeks old and weighted approximately 20 g. The mice were housed in a type 3 cage containing enrichment in the form of a cardboard house and paper and woodchip bedding with a maximum of seven mice per cage. […] Food and water was provided ad libitum. Experimentally infected mice were treated with BPQ to elucidate the efficacy of the drug in vivo. To infect mice, in vitro grown E. multilocularis metacestodes (isolate […]) were washed in PBS, were mechanically destroyed by pipetting and the resulting suspension was centrifuged for 5 min at 500 g. The parasite tissue was then taken up in an equal volume of PBS. Each mouse was subsequently infected intraperitoneally (i.p.) with 200 μl of this suspension. […] infected mice were randomly distributed into 3 treatment groups (8 animals per group) with 4 animals per cage. […] Treatments of mice started 2 weeks post-infection and lasted for 4 weeks, with consecutive treatment of mice for 5 days per week, followed by an interruption of treatment for 2 days for recovery. All treatments were administered by oral gavage in a volume of 50 μl, with ABZ and BPQ being suspended in corn oil. After four weeks, all mice were anesthetized with isoflurane and subsequently euthanized by CO2. The parasitic tissue from each mouse was completely resected and weighed. The mass of the resected parasitic tissue was used for statistical analyses of the experiment. […] The significance level was set to p < 0.05. Figures were prepared in R and Adobe Illustrator 2015.1.0.

For series [2], the system named is E. multilocularis metacestodes. As to the kind of experiment: PGI-assay: drug-induced damage on in vitro cultured metacestodes (Pathogen Box screening cascade and EC50). Type of series: cell-based, Echinococcus multilocularis. As to conditions: for activity in the present in vitro screen (threshold 20% relative activity compared to Tx-100) / activity in the screen at 10 μM (confirmed in triplicates, >20% relative PGI release): 10 μM; for activity against metacestodes at 1 μM / PGI release, % of Tx-100 control, average, 5d / PGI release, % of Tx-100 control, average, 12d: triplicates; for PGI release, % of Tx-100 control, average, 5d / PGI release, % of Tx-100 control, average, 12d: 1 µM; for activity in the screen at 10 μM (confirmed in triplicates, >20% relative PGI release): 5 and 12 days; for toxicity against E. multilocularis metacestodes compared with host cells (HFF, RH): comparison of EC50 with IC50 on mammalian cells.

The subject of series [3] is E. granulosus. Also on record: method as in Kammerer and Perez-Esandi, 1975; Miyaji et al., 1993. The settings on record: ref Kammerer and Perez-Esandi, 1975; Miyaji et al., 1993; cited from earlier work.
The test system of series [4] is Reuber rat hepatoma (RH) cells. As to the kind of experiment: Cytotoxicity by Alamar Blue assay in rat hepatoma cells. The settings on record: 120 h. In kind it is cell-based. In general terms: Alamar Blue is a resazurin reagent that responds to reducing activity.
Series [5] concerns E. multilocularis metacestodes. As to the kind of experiment: Vesicle viability assay by Alamar Blue (MIC). Type of series: cell-based, Echinococcus multilocularis. The method, then:
The setup was the same as for PGI-assay EC50 calculations and it was performed in triplicates. […] Data was used to calculate the minimal inhibitory concentrations (MICs) of these compounds on metacestodes.

Series [6] concerns human foreskin fibroblasts (HFF). As to the kind of experiment: Cytotoxicity by Alamar Blue assay in human foreskin fibroblasts. The settings on record: for IC50: Homo sapiens, Fibroblast, 120 h.
The test system is the same in series [7]. Details: method as in Stadelmann et al., 2016. The settings on record: ref Stadelmann et al., 2016; cited from earlier work.
Setting [8] is: Echinococcus multilocularis, 120 h, 10 µM, singlets, 5 days of incubation, read-out: PGI release, % of the Tx-100 control, 5d.
[9] abbreviates: Echinococcus multilocularis, 288 h, 10 µM, singlets, 12 days of incubation, read-out: PGI release, % of the Tx-100 control, 12d.
Where [10] appears, read: Echinococcus multilocularis, 120 h, read-out: PGI release, % of Tx-100 control, average, 5d.
[11] abbreviates: Echinococcus multilocularis, 120 h, read-out: PGI release, % of the Tx-100 control, 5d.
Where [12] appears, read: Echinococcus multilocularis, 288 h, read-out: PGI release, % of Tx-100 control, average, 12d.
Where [13] appears, read: Echinococcus multilocularis, 288 h, read-out: PGI release, % of the Tx-100 control, 12d.
The mark [14] stands for this setting: Echinococcus multilocularis, 288 h, read-out: E. multilocularis MIC, Alamar Blue vesicle viability assay, 12 days of incubation.
[15] abbreviates: read-out: HFF preconfluent IC50.

Regarding `CCCSc1ccc2nc(NC(=O)OC)[nH]c2c1` [ABZ, albendazole], the “parasite burden compared to the control” value in series [1] (p.o. in corn oil, 5 days per week, 4 weeks, BPQ 100 mg/kg, ABZ 200 mg/kg) is on record as “significant reduction”. The “adverse effects due to treatment” value in series [1] (whole course of treatment, 4 weeks p.o.) is recorded as “None of the mice showed signs of adverse effects”.
As for `N=C(N)c1ccc(OCCCCCOc2ccc(C(=N)N)cc2)cc1` [MMV000062, Pentamidine, reference compound], the “activity in the present in vitro screen (threshold 20% relative activity compared to Tx-100)” value in series [2] is “inactive”. The cytotoxicity at 10 µM was -1% in series [2] (setting [8]) and -1.06% in series [2] (setting [9]). Further, the “effect in vivo against E. granulosus” value in series [3] is listed as “did not show any effects”.
Regarding `NCCC[C@](N)(C(=O)O)C(F)F` [MMV001625, alpha-Difluoromethylornithine, reference compound], the “activity in the present in vitro screen (threshold 20% relative activity compared to Tx-100)” value in series [2] was “inactive”. Moreover, in series [2] (10 µM, singlets, 5 days of incubation), the “PGI release, % of the Tx-100 control, 5d” value is -0.43%. The “PGI release, % of the Tx-100 control, 12d” value in series [2] (10 µM, singlets, 12 days of incubation) was -0.93%. In addition, in series [3], the “effect in vivo against E. granulosus” value is “did not show any effects”.
Regarding `c1ccc(-c2nc(NC3CCCCC3)cc(C3CC3)n2)nc1` [MMV021013], the “activity against metacestodes at 1 μM” value in series [2] is reported as “distinct in vitro activities”. For the same compound, the “PGI release, % of Tx-100 control, average, 5d” value (“PGI release, % … average, 5d” for short) in series [2] (5 days of incubation) was determined as 3.92%. Further, in series [2] (12 days of incubation), the “PGI release, % of Tx-100 control, average, 12d” value (shortened to “PGI release, % … average, 12d”) is given as 24.95%. Further, in series [2], the “activity in the screen at 10 μM (confirmed in triplicates, >20% relative PGI release)” value was “active”. Also, in series [2] (Echinococcus multilocularis, 120 h, read-out: E. multilocularis EC50, PGI-assay, 5 days in vitro), the EC50 amounted to 15.8 µM. The cytotoxicity at 10 µM is 37.8% in series [2] (setting [10]), 34.8% in series [2] (setting [11]), 42.3% in series [2] (setting [12]) and 92% in series [2] (setting [13]). Moreover, in series [2], the “toxicity against E. multilocularis metacestodes compared with host cells (HFF, RH)” value (“toxicity … compared with host cells (HFF, RH)” for short) is listed as “as toxic to host cells as it was to E. multilocularis metacestodes”. The IC50 in series [4] (read-out: RH confluent IC50) is 2.07 µM; in series [4] (read-out: RH preconfluent IC50), 1.1 µM; in series [6] (read-out: HFF confluent IC50), 53.1 µM; in series [6] (setting [15]), 5.14 µM. Besides, the MIC in series [5] (setting [14]) turned out to be 20 µM (≈ 5.89 µg/mL).
In the case of `Cc1ccc(C(=O)Nc2ccc(S(=O)(=O)O)c3cc(S(=O)(=O)O)cc(S(=O)(=O)O)c23)cc1NC(=O)c1cccc(NC(=O)Nc2cccc(C(=O)Nc3cc(C(=O)Nc4ccc(S(=O)(=O)O)c5cc(S(=O)(=O)O)cc(S(=O)(=O)O)c45)ccc3C)c2)c1` [MMV637953, Suramin, reference compound], the “activity in the present in vitro screen (threshold 20% relative activity compared to Tx-100)” value in series [2] is “inactive”. The cytotoxicity at 10 µM in series [2] (setting [8]) was 0.85%; in series [2] (setting [9]), 0.51%. Further, in series [3], the “effect in vivo against E. granulosus” value is “did not show any effects”.
As for `O=C(Nc1cccc(C(F)(F)F)c1)c1cc(Cl)ccc1O` [MMV665807], in series [7], the “toxicity against HFF” value is recorded as “did not exhibit any specific toxicity”.
Consider `Cc1[nH]c2cc(F)cc(F)c2c(=O)c1-c1ccc(Oc2ccc(OC(F)(F)F)cc2)cc1` [MMV671636, ELQ-400], for which, in series [2], the “activity against metacestodes at 1 μM” value was “distinct in vitro activities”. Further, the “PGI release, % … average, 5d” value in series [2] (5 days of incubation) came out at 56.00%. Moreover, in series [2] (12 days of incubation), the “PGI release, % … average, 12d” value is given as 70.43%. The “activity in the screen at 10 μM (confirmed in triplicates, >20% relative PGI release)” value in series [2] was “active”. The cytotoxicity at 10 µM stood at 5.44% in series [2] (setting [10]), 6.52% in series [2] (setting [11]), 76.1% in series [2] (setting [12]) and 24% in series [2] (setting [13]). For the same compound, the IC50 in series [2] (Echinococcus multilocularis, read-out: IC50 against in vitro cultured E. multilocularis metacestodes) worked out at 0.02 µM; in series [4] (read-out: RH confluent IC50), 2.07 µM; in series [4] (read-out: RH preconfluent IC50) it was 0.25 µM; in series [6] (read-out: HFF confluent IC50), 74.8 µM; in series [6] (setting [15]) it was 12.3 µM. For the same compound, in series [2], the “toxicity … compared with host cells (HFF, RH)” value is given as “specific toxicity”. The EC50 in series [2] (read-out: E. multilocularis EC50, PGI-assay, 5 days in vitro) is 0.02 µM; in series [2] (read-out: E. multilocularis EC50, PGI-assay, 5 days in vitro, listed as MMV671363), less than 1 µM. The “E. multilocularis MIC” value in series [5] (Alamar Blue vesicle viability assay, 12 days of incubation, listed as MMV671363) is recorded as “below 1 μM”. Besides, the MIC in series [5] (Alamar Blue vesicle viability assay, 12 days of incubation, read-out: E. multilocularis MIC) came to 0.01 µM (≈ 0.00447 µg/mL).
For the compound `O=C(Nc1cc(C(F)(F)F)cc(C(F)(F)F)c1)c1cc(Cl)ccc1O` [MMV687807], in series [2], the “activity against metacestodes at 1 μM” value is given as “distinct in vitro activities”. Further, the “PGI release, % … average, 5d” value in series [2] (5 days of incubation) amounted to 40.83%. Besides, in series [2] (12 days of incubation), the “PGI release, % … average, 12d” value was determined as 59.00%. In addition, the “activity in the screen at 10 μM (confirmed in triplicates, >20% relative PGI release)” value in series [2] is “active”. For the same compound, the cytotoxicity at 10 µM in series [2] (setting [10]) was found to be 58.5%; in series [2] (setting [11]) it was 30.8%; in series [2] (setting [12]), 74.5%; in series [2] (setting [13]), 64.7%. For the same compound, the “toxicity … compared with host cells (HFF, RH)” value in series [2] is on record as “could only exhibit a potential therapeutic window for RH cells”. Also, the IC50 was 20.1 µM in series [4] (read-out: RH confluent IC50), 1.27 µM in series [4] (read-out: RH preconfluent IC50), 0.37 µM in series [6] (read-out: HFF confluent IC50) and 0.15 µM in series [6] (setting [15]). Further, the MIC in series [5] (setting [14]) was less than 1 µM. Besides, in series [6] (among the four compounds), the “toxicity against HFF (in words)” value was “highest toxicity against HFF”.

What is called EC50 is the concentration at which the effect is half-maximal. Usually IC50 stands for the concentration at which inhibition is half-maximal. The term MIC denotes the lowest concentration found to suppress growth.
